Where no end group is shown, it is not given here. PEG10kDa = 10 kDa linear methoxy-PEG propionaldehyde on the N-terminus; PEG20kDa = 20 kDa linear methoxy-PEG propionaldehyde on the N-terminus
Columns and labels:
human plasma FN = assay: Isothermal Titration calorimetry (ITC) of peptide binding to fibronectin; conditions: pH 7.4 PBS, 25° C., triplicate
Experimental: Isothermal Titration calorimetry (ITC): ITC experiments were performed using a VP-ITC microcalorimeter (MicroCal, LLC) with a cell volume of 2.2 mL. In a typical experiment, the cell was filled with 1.4 mL of 2 μM human plasma FN and the syringe was filled with 1 mL of 28 μM FUD or PEG-FUD peptides. The temperature was set to 25° C. The titration experiment was performed in 39 injections (1×1, 4×4, and 34×8 μL) delivered in 120 sec intervals. Prior to injection, both FN and the peptides were dialyzed in separate dialysis bags overnight into the same PBS buffer (pH 7.4) solution. Routine analysis involved discarding of the first data point and subtraction of peptide into PBS buffer control run. Data were fit using one set of sites model Lavenberg-Marquardt nonlinear regression in Origin 7.0.
The binding of 10 kDa, 20 kDa, and 40 kDa PEG-FUD to FN was studied using Isothermal Titration calorimetry (ITC). This technique was used to determine the thermodynamic parameters as well as the binding constant (Kd) of the interaction. The peptide was injected into a human plasma FN solution in PBS at pH 7.4 and 25° C. in triplicate runs. […] A Kd of 6 (±3) nM was detected for FUD:FN. […] Similar entropy change of −65 (±3) cal/mol, −74 (±7) cal/mol, −66 (±7) cal/mol, and −73 (±2) and enthalpy change of −31 (±1) kcal/mol, −34 (±2) kcal/mol, −30 (±1) kcal/mol, and −32.5 (±0.5) kcal/mol were detected for the interaction of FUD and 10 kDa, 20 kDa, and 40 kDa PEG-FUD with FN, respectively. […] This observation is contrary to the expectation of PEG attachment diminishing a drug's affinity for its binding partner and presents an unexpected but desired feature of the PEG-FUD peptide.

[1] = Fluorescence imaging (IVIS) of subcutaneous dose absorption; format: in vivo, mouse; conditions: for % dose remaining at the site of injection after 24 hours / apparent half-life at the site of injection: s.c. 12.5 mg/kg FUD equivalents; for apparent half-life at the site of injection: spiked with 1.5% Cy5 labeled drug, nude mice
Experimental: Preparation of Animal Experiment FUD and 10-40 kDa PEG-FUD Drug Dose: A 12.5 mg FUD equivalents per kg of mouse weight drug dose spiked with 1.5% Cy5 labeled drug was prepared by mixing an appropriate amount of unlabeled and labeled drug in a conical vial. The drug was then dialyzed ON into phosphate buffered saline (pH 7.4) using a 3000 MWCO dialysis membrane. The total volume of the dose was reduced to the appropriate value using a 3000 MWCO Amicon® Ultra-15 centrifugal unit. The final concentration of the drug was determined using a UV-vis spectrophotometer and the 646 nm extinction coefficient of Cy5, ε=271000 L·mol^−1·cm^−1.
10 week old mice weighing 20-23 g were placed under 2% isoflurane anesthesia and positioned on their abdomen inside of an IVIS Spectrum In Vivo Imaging System. A 100 uL dose containing 0.27 mg (12.5 mg/kg) of FUD or FUD equivalents of 10-40 kDa PEG-FUD that was spiked with 1.5% Cy5 labeled drug was delivered subcutaneously between the shoulder blades of the animals (n=3 per treatment group). The animals were imaged before the injection, immediately following injection, and at time points of 30 minutes and 1, 3, 6, 12, 24, 36, and 48 hours. The animals were sacrificed following the last time point and their organs were harvested for ex vivo fluorescence imaging and drug extraction and quantification. LivingImage® (PerkinElmer) software was used to analyze the views of each animal group. The autodraw feature of the software set to a 5% threshold was used to create unique regions of interest (ROI) on each animal at t=30 mins views that were consistently applied to each subsequent time point views to quantify drug levels present at the site of injection. Baseline autoflorescence values calculated from ROIs applied to “before injection” views were subtracted from the values of each time point's animals. The ROI values obtained from the t=30 mins views were used to calculate % dose remaining for each subsequent time point.

[2] = tested on: Alexa 488-labeled human plasma FN; assay: Matrix Assembly in vitro Assay (MAA), A488-FN deposition by AH1F fibroblasts; format: cell-based; conditions: 24 hours, viability-normalized fluorescence, n=4, FUD run alongside each conjugate
Sequence of Alexa 488-labeled human plasma FN (P02751 32-608 limits assumed): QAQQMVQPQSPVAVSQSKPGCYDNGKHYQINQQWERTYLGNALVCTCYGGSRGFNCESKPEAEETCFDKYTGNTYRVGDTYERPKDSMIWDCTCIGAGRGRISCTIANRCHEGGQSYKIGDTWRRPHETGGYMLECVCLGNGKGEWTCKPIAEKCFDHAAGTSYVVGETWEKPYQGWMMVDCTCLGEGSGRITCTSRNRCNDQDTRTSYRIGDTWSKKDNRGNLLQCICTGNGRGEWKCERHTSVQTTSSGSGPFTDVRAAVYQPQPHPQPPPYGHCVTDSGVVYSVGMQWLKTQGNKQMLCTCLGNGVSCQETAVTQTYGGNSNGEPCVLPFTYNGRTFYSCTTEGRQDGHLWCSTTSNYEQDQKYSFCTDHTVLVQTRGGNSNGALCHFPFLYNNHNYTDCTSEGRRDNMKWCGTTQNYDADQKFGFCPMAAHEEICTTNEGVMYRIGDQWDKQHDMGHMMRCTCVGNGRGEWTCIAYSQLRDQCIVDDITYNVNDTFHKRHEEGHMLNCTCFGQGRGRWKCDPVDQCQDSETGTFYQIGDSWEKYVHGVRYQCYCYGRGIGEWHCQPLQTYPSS
Experimental: Matrix Assembly Assay: The matrix assembly assay was conducted in the 96-well plate format as described in the art. AH1F human skin fibroblast cells resuspended in 2% fetal bovine serum were added to each well for a density of 60,000 cells per well. A 1 hr incubation period at 37° C. followed to allow cell adhesion and spreading. FUD, PEG-FUD, or PEG-mFUD were added to each well following incubation. Immediately, Alexa Fluor® 488 fluorescence labeled human plasma fibronectin (A488-FN) was then added to each well for a final FN concentration of 11 μg/mL. The cells were then incubated for 24 hours at 37° C. Non-assembled FN was removed from each well by washing with Hank's Balanced Salt Solution (HBSS) containing Ca^2+ and Mg^2+. The well volume was restored to 60 μL with HBSS and a fluorescence reading from the bottom of each well was taken using a Synergy™ H1 (Biotek) plate reader (excitation: 485 nm, Emission: 538 nm). Cell viability was quantified using CellTiter-Glo® cell viability assay using the manufacturer's protocol. A 30 μL aliquot of HBSS was removed from each well and was replaced with 30 μL of the luminescence reagent prepared shortly beforehand. Luminescence was quantified using the same plate reader. The average of fluorescence values of a no A488FN or inhibitor control group were routinely subtracted from the readings of each well and were normalized using each well's corresponding luminescence value. Lastly, the cell viability normalized fluorescence values were expressed as a percentage of the 0 nM drug control group. The final results were processed using Graphpad Prism 7.0 software. IC50 values were extracted using a four-parameter dose-response curve function. Student's t test was used to determine significance of differences among peptides at a given drug concentration.
The PEG-FUD FN fibrillogenesis inhibitory performance was evaluated in vitro using the matrix assembly assay (MAA). The methodology of this assay is depicted in FIG. 8. The MAA quantifies ECM deposition of exogenous AlexaFluor® 488-labeled FN (A488FN) by a confluent monolayer of fibroblasts after an incubation period by measuring fluorescence of deposited FN. In this study, the performance of PEG-FUD peptides was compared to that of FUD and the PEG-mFUD control peptide using the AH1F human foreskin fibroblast cell line.

[3] = literature examples; cited from earlier work

Sequence of human plasma FN (P02751 32-608 limits assumed): as above

Substance: 10 kDa PEG-FUD: FUD N-terminally mono-PEGylated with 10 kDa linear methoxy-PEG propionaldehyde (PEG10kDa-KDQSPLAGESGETEYITEVYGNQQNPVDIDKKLPNETGFSGNMVETEDT)
- Kd (human plasma FN): 0.0046 µM
- migration into the site of injury (ear tag wound) ([1]; fluorescence imaging): migration of 10 K PEG-FUD into the site of injury
- % dose remaining at the site of injection after 24 hours [1]: 1.2%
- apparent half-life at the site of injection [1]: 2.8 h
- IC50 [2]: 0.017 µM

Substance: 20 kDa PEG-FUD: FUD N-terminally mono-PEGylated with 20 kDa linear methoxy-PEG propionaldehyde (PEG20kDa-KDQSPLAGESGETEYITEVYGNQQNPVDIDKKLPNETGFSGNMVETEDT)
- Kd (human plasma FN): 0.01 µM
- % dose remaining at the site of injection after 24 hours [1]: 3.5%
- apparent half-life at the site of injection [1]: 6.2 h
- IC50 [2]: 0.023 µM

Substance: 40 kDa PEG-FUD: FUD N-terminally mono-PEGylated with 40 kDa branched methoxy-PEG propionaldehyde ({mPEG 40 kDa branched}-KDQSPLAGESGETEYITEVYGNQQNPVDIDKKLPNETGFSGNMVETEDT)
- Kd (human plasma FN): 0.0147 µM
- % dose remaining at the site of injection after 24 hours [1]: 7.9%
- apparent half-life at the site of injection [1]: 8.7 h
- IC50 [2]: 0.02 µM

Substance: PEG-G120K-GH: literature example of a PEGylated protein with reduced activity
- reduction of activity upon PEGylation [3]: 186 fold

Reference: patent publication US10828372B2, “Compositions and methods for the inhibition of fibrosis” (WISCONSIN ALUMNI RESEARCH FOUNDATION, priority 2017, dated 2020)
